One test concerns the target T1, Phospholipase D1 (Homo sapiens, UniProt Q13393).
T1 sequence (Q13393 whole entry): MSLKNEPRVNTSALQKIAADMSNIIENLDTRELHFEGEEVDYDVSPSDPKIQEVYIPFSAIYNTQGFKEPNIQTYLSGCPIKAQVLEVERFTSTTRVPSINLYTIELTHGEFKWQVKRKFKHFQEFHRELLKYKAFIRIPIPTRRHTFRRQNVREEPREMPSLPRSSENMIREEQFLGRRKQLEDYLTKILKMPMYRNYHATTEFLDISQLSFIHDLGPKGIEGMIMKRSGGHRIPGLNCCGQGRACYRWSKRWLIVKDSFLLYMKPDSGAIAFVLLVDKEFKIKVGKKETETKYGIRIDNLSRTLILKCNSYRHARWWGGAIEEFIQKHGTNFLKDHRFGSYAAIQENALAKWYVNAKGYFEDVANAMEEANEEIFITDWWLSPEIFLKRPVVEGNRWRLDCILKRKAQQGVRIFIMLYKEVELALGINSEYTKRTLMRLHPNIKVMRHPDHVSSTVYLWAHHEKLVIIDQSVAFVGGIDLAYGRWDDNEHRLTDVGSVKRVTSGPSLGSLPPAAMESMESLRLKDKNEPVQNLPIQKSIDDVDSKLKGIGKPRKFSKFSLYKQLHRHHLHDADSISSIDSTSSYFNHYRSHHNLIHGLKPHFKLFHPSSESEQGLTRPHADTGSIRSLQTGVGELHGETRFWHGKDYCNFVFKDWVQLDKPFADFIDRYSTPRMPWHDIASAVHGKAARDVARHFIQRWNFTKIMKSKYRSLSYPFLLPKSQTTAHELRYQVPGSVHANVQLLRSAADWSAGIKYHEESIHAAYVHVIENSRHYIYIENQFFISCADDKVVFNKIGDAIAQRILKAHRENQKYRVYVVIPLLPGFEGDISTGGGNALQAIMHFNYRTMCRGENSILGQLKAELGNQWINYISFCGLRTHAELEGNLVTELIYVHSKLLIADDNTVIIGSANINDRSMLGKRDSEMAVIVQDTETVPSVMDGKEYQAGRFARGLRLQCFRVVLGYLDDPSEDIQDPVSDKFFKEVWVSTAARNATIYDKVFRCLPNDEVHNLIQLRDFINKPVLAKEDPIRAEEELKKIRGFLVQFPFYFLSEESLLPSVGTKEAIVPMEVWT

The species entered for the next test is Homo sapiens. In words: Selectivity ratio of IC50 for human PLD1 to IC50 for human GST-tagged PLD2A.
In another test the target is Phospholipase D2 (Homo sapiens, UniProt O14939).
In test [1] the target is T2, Phospholipase D1 (Homo sapiens) (UniProt Q13393).
T2 sequence (whole entry): T1 sequence (Q13393 whole entry)
In kind it is cell-based. The note with it: MDA-MB-231, 10 uM.

Active and inactive are the calls of the source. The calls are words filed in the database; no cut-off is given here.

Chain of Phospholipase D2 (O14939 whole entry): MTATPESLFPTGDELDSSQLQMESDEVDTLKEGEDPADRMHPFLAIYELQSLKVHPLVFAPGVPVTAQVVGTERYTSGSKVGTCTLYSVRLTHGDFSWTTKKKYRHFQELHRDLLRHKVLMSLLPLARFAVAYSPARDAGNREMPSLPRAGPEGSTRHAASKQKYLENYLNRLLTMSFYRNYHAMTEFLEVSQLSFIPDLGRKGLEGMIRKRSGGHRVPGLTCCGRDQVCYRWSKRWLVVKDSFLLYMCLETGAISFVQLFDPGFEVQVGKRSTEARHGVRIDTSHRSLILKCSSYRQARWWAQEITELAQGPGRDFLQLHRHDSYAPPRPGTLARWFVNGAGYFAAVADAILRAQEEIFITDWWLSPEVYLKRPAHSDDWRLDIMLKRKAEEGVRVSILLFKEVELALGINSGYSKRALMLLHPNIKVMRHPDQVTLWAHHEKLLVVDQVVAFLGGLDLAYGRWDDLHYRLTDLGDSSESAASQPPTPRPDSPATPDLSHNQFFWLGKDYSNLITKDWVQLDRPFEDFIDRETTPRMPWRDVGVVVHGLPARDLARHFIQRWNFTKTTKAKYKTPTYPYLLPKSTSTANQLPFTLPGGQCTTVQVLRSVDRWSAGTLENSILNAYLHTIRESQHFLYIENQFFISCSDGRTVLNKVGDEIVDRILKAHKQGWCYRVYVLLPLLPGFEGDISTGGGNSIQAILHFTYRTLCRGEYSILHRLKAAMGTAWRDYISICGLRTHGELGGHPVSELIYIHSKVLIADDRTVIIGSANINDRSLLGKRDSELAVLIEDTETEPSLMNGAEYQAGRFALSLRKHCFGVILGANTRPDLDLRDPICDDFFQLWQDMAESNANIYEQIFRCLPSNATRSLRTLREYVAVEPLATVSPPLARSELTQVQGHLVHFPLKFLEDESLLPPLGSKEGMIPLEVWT
Description for Phospholipase D2: Inhibition of human GST-tagged PLD2A in human HEK293 cells

Take `O=C(NCCN1CCC2(CC1)C(=O)NCN2c1ccc(Cl)cc1)c1ccc2ccccc2c1`: the half-inhibitory concentration (IC50) (usually the point on the concentration scale where inhibition reaches its midpoint) at Phospholipase D1 was found to be 2270 nM; against Phospholipase D2, 655 nM. The Selectivity ratio in the test listed under Homo sapiens was 3.5.
On the same counts, the results for `O=C(NCCN1CCC2(CC1)C(=O)NCN2c1ccc(Br)cc1)c1cnc2ccccc2c1` are 2700 nM, 360 nM and 8.
In the same order, the values of `O=C(NCCN1CCC2(CC1)C(=O)NCN2c1ccc(F)cc1)c1cnc2ccccc2c1` are 2000 nM, 40 nM and 50.
Regarding `O=C(NCCN1CCC2(CC1)C(=O)NCN2c1cccc(Cl)c1)c1cc2cc(F)ccc2[nH]1`, the concentration for half-maximal inhibition (IC50) against Phospholipase D1 amounted to 250 nM; at Phospholipase D2, 73 nM. The Selectivity ratio in the test listed under Homo sapiens was 3.4.
In the same order, the values of `O=C(NCCN1CCC2(CC1)C(=O)NCN2c1ccc(Cl)cc1)c1cc2cc(F)ccc2[nH]1` are 335 nM, 50 nM and 7.
`C[C@@H](CN1CCC(n2c(=O)[nH]c3cc(Br)ccc32)CC1)NC(=O)[C@H]1C[C@@H]1c1ccccc1`: the inhibition entry in test [1] was “Active”.
Turning to `O=C(NCCN1CCC2(CC1)C(=O)NCN2c1ccc(Br)cc1)c1cc2cc(F)ccc2[nH]1`, the figures for the half-inhibitory concentration (IC50) against Phospholipase D1 and on Phospholipase D2 were 2660 nM and 100 nM, respectively. Besides, the Selectivity ratio in the test listed under Homo sapiens is 27.
Consider `O=C(NCCN1CCC2(CC1)C(=O)NCN2c1cccc(Cl)c1)c1ccc(F)cc1`, for which the IC50 against Phospholipase D1 was 3470 nM; against Phospholipase D2, 70 nM. For the same molecule, the Selectivity ratio in the test listed under Homo sapiens was found to be 50.
In the same order, the values of `O=C(NCCN1CCC2(CC1)C(=O)NCN2c1ccc(Br)cc1)c1ccc2ccccc2c1` are 5900 nM, 350 nM and 17.
With `O=C(NCCN1CCC2(CC1)C(=O)NCN2c1cccc(Cl)c1)c1ccc2ccccc2c1`, the results for the half-inhibitory concentration (IC50) at Phospholipase D1 and against Phospholipase D2 were 1200 nM and 290 nM, respectively. Also, in the test filed under Homo sapiens, the Selectivity ratio was determined as 4.
In the same order, the values of `O=C(NCCN1CCC2(CC1)C(=O)NCN2c1ccc(Br)cc1)c1ccc(F)cc1` are 10000 nM, 8000 nM and 1.
`O=C(NCCN1CCC2(CC1)C(=O)NCN2c1ccc(F)c(F)c1)c1ccc(F)cc1`: the values for the IC50 against Phospholipase D1 and against Phospholipase D2 were 5780 nM and 660 nM, respectively. In the test listed under Homo sapiens, the Selectivity ratio worked out at 9.
In the same order, the values of `O=C(NCCN1CCC2(CC1)C(=O)NCN2c1ccc(F)cc1)c1cc2cc(F)ccc2[nH]1` are 290 nM, 30 nM and 9.
In the same order, the values of `O=C(NCCN1CCC2(CC1)C(=O)NCN2c1ccc(F)cc1)c1ccc(F)cc1` are 14000 nM, 610 nM and 23.
On the same counts, the results for `O=C(NCCN1CCC2(CC1)C(=O)NCN2c1ccc(F)cc1)c1ccc2ccccc2c1` are 1700 nM, 80 nM and 21.
With `O=C(NCCN1CCC2(CC1)C(=O)NCN2c1ccc(Cl)cc1)c1cnc2ccccc2c1`, the IC50 worked out at 3500 nM on Phospholipase D1 and 200 nM at Phospholipase D2. Further, the Selectivity ratio in the test listed under Homo sapiens was 17.
For `O=C(NCCN1CCC2(CC1)C(=O)NCN2c1cccc(F)c1)c1cc2cc(F)ccc2[nH]1`, the IC50 against Phospholipase D1 was 210 nM; at Phospholipase D2, 25 nM. For the same molecule, the Selectivity ratio in the test listed under Homo sapiens amounted to 8.
In the same order, the values of `O=C(NCCN1CCC2(CC1)C(=O)NCN2c1ccc(F)c(F)c1)c1cc2cc(F)ccc2[nH]1` are 390 nM, 100 nM and 4.
On the same counts, the results for `O=C(NCCN1CCC2(CC1)C(=O)NCN2c1ccc(Cl)cc1)c1ccc(F)cc1` are 5590 nM, 5670 nM and 1.
`O=C(NCCN1CCC2(CC1)C(=O)NCN2c1cccc(F)c1)c1ccc(F)cc1` showed a half-inhibitory concentration (IC50) against Phospholipase D2 of 6700 nM.
`C[C@@H](CN1CCC2(CC1)C(=O)NCN2c1cccc(F)c1)NC(=O)c1ccc2ccccc2c1`: the IC50 on Phospholipase D1 was 10 nM; against Phospholipase D2 it was 60 nM.
As for `O=C(NCCN1CCC2(CC1)C(=O)NCN2c1ccc(F)c(F)c1)c1cnc2ccccc2c1`, the IC50 turned out to be 2060 nM against Phospholipase D1 and 70 nM against Phospholipase D2. Further, the Selectivity ratio in the test listed under Homo sapiens was found to be 30.
With `O=C(NCCN1CCC2(CC1)C(=O)NCN2c1cccc(Cl)c1)c1cnc2ccccc2c1`, the IC50 was 870 nM at Phospholipase D1 and 165 nM against Phospholipase D2. Further, the Selectivity ratio in the test filed under Homo sapiens was 5.
With `O=C(NCCN1CCC2(CC1)C(=O)NCN2c1cccc(F)c1)c1cnc2ccccc2c1`, the IC50 was 2500 nM against Phospholipase D1 and 63 nM against Phospholipase D2. Further, the Selectivity ratio in the test listed under Homo sapiens is 40.

Values taken from ChEMBL document CHEMBL1250519, “Design, synthesis, and biological evaluation of halogenated N-(2-(4-oxo-1-phenyl-1,3,8-triazaspiro[4.5]decan-8-yl)ethyl)benzamides: discovery of an isoform-selective small molecule phospholipase D2 inhibitor” (J Med Chem, 2010).
